Assay results: PubChem BioAssay AID330 (DTP/NCI, 2004)
Toxic doses and inconclusive results are not listed. Rule for the calls: active = survival T/C of 150% or more; inactive = T/C below 125% in these data.

Test system: P388 leukemia ip, CD2F1 mice, survival T/C
Assay: NCI In Vivo Anticancer Drug Screen. Data for tumor model P388 Leukemia (intraperitoneal) in CD2F1 (CDF1) mice
Details: endpoint: median survival time, higher = longer survival
Summary of the method: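 Mice carrying the transplanted tumor received test compound or vehicle. Survival was recorded in each group, and the value is the treated-group measurement divided by that of the vehicle-treated control group.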

[1] = dose: 6.25 mg/kg/injection, schedule: Q01DX009 (ip), vehicle: saline with Tween-80
[2] = dose: 12.5 mg/kg/injection, schedule: Q01DX009 (ip), vehicle: saline with Tween-80
[3] = dose: 25.0 mg/kg/injection, schedule: Q01DX009 (ip), vehicle: saline with Tween-80
[4] = dose: 50.0 mg/kg/injection, schedule: Q01DX009 (ip), vehicle: Klucel (hydroxypropylcellulose) (HPC)
[5] = dose: 100.0 mg/kg/injection, schedule: Q01DX009 (ip), vehicle: Klucel (hydroxypropylcellulose) (HPC)

Measured: T/C

O=[N+]([O-])/C(=C/c1ccccc1)c1ccccc1
inactive: [1] 109 % of control | dose: 6.25 mg/kg/injection, schedule: Q04DX003 (ip), vehicle: saline with Tween-80 109 % of control | [2] 118 % of control | dose: 12.5 mg/kg/injection, schedule: Q04DX003 (ip), vehicle: saline with Tween-80 100 % of control | [3] 118 % of control | dose: 25.0 mg/kg/injection, schedule: Q04DX003 (ip), vehicle: saline with Tween-80 113 % of control

CCCCOc1cc(C(=O)NCCN(CC)CC)c2ccccc2n1
inactive: [1] 100 % of control | [2] 113 % of control | [3] 100 % of control

OC(CNC1CC2CCC1C2)COc1cccc2ccccc12 (configuration not stated)
inactive: dose: 25.0 mg/kg/injection, schedule: Q01DX009 (ip), vehicle: Klucel (hydroxypropylcellulose) (HPC) 107 % of control | [4] 107 % of control | [5] 110 % of control

Cc1nnsc1-c1nnc2sc(C(F)(F)F)nn12
inactive: dose: 50.0 mg/kg/injection, schedule: Q04DX002 (ip), vehicle: Klucel (hydroxypropylcellulose) (HPC) 100 % of control | dose: 100.0 mg/kg/injection, schedule: Q04DX002 (ip), vehicle: Klucel (hydroxypropylcellulose) (HPC) 100 % of control | dose: 200.0 mg/kg/injection, schedule: Q04DX002 (ip), vehicle: Klucel (hydroxypropylcellulose) (HPC) 100 % of control

NC(Cc1cc(I)c(O)c(I)c1)C(=O)O (configuration not stated)
inactive: dose: 50.0 mg/kg/injection, schedule: Q01DX009 (ip), vehicle: saline with Tween-80 110 % of control | dose: 100.0 mg/kg/injection, schedule: Q01DX009 (ip), vehicle: saline with Tween-80 108 % of control | dose: 200.0 mg/kg/injection, schedule: Q01DX009 (ip), vehicle: saline with Tween-80 88 % of control

CC(=O)C1C(=O)C(=O)N(c2ccc(F)cc2)C1=O (configuration not stated)
inactive: dose: 100.0 mg/kg/injection, schedule: Q01DX001 (ip), vehicle: saline with Tween-80 103 % of control | dose: 200.0 mg/kg/injection, schedule: Q01DX001 (ip), vehicle: saline with Tween-80 99 % of control | dose: 400.0 mg/kg/injection, schedule: Q01DX001 (ip), vehicle: saline with Tween-80 98 % of control

CCCCCCCCCCCCCCOC(=O)c1ccc(O)cc1
inactive: [4] 94 % of control | [5] 101 % of control | dose: 200.0 mg/kg/injection, schedule: Q01DX009 (ip), vehicle: Klucel (hydroxypropylcellulose) (HPC) 89 % of control

N#C/C(=C\c1ccc(Cl)cc1Cl)C(=O)N/N=C/c1ccc(Cl)cc1Cl
inactive: dose: 100.0 mg/kg/injection, schedule: Q04DX003 (ip), vehicle: saline 95 % of control | dose: 200.0 mg/kg/injection, schedule: Q04DX003 (ip), vehicle: saline 97 % of control | dose: 400.0 mg/kg/injection, schedule: Q04DX003 (ip), vehicle: saline 90 % of control
